From patent US20230338397A1, “COMPOSITION COMPRISING CANNABINOIDS, AND/OR TERPENS, AND METHODS OF USING SAME” (priority 2020, published 2023)
“Also recorded” adds a separate entry of the source.

Columns and labels:
GM-CSF = GM-CSF level in SEB-stimulated dispersed nasal polyp cells; format: cell-based, human; conditions: CBD 2.5 μM, 5 μM, 10 μM, 30 min before SEB, FIG. 8
[1] = system: human nasal polyp (NP) whole tissues; assay: NP organ culture: detachment of cells/tissue pieces from nasal polyp (micrographs)
human Jurkat T cell line = assay: T cell death in Jurkat cells (PI, flow cytometry); conditions: 2 h, FIG. 11; for T cell death compared to vehicle: CBD 1-20 μM, CBG 5-20 μM
[2] = system: enzymatically-dissociated human NP; assay: NP organ culture: cell death by PI and flow cytometry after enzymatic digestion; conditions: for cell death of incubated nasal polyp cells: 72 h, FIG. 10
[3] = system: dispersed nasal polyp cells; assay: Cell death of dispersed NP cells (PI, flow cytometry), 2 h; format: cell-based, human; conditions: 10 μM, 2 h incubation, FIG. 12
Protocol: DNPCs are prepared from nasal polyps by means of enzymatic digestion. Nasal Polyps are incubated for 2 hours at 37° C. in RPMI 1640 (1 g of tissue per 4 mL) containing 2.0 mg/mL protease, 1.5 mg/mL collagenase, 0.75 mg/mL hyaluronidase, and 0.05 mg/mL DNase. The cell suspension is then filtered through a […] cell strainer to remove any undigested tissue and washed 2 times with washing medium (RPMI 1640 supplemented with 2% FCS, 2 mmol/L glutamine, 100 U/mL penicillin, and […] streptomycin). The cell pellet is resuspended in erythrocyte lysis buffer and washed with washing medium. After washing, DNPCs are suspended in culture medium (RPMI 1640 supplemented with 10% Foetal Calf Serum (FCS), 2 mmol/L glutamine, 100 U/mL penicillin, and […] streptomycin).
The effect of the treatment is evaluated by cell death parameters, using […] (PI) and flow cytometry (FACS) analysis, and enzymatic-linked immunoassay (ELISA).

human NP tissue = assay: NP organ culture: tissue weight reduction ex-vivo; conditions: for NP tissue weight reduction: 150 μM

C=C(C)[C@@H]1CCC(C)=C[C@H]1c1c(O)cc(CCCCC)cc1O [CBD, cannabidiol]
GM-CSF level (GM-CSF): significantly decrease; also recorded: significantly reduces or inhibits | detachment of cells/tissue pieces from the main NP ([1]; CBD 150 μM, 3 h incubation, FIG. 1): starting to detach from the main NP whole tissue; also recorded: starting to detach and disaggregate from the main polyp | cells/tissue pieces breaking off the main polyp ([1]; CBD 150 μM, 72 h incubation, FIG. 3): cells/tissue pieces are breaking off the main polyp into the medium | detachment of cells/tissues from the main NP ([1]; CBD 600 μM, 24 h incubation, FIG. 2): significant detachment of cells/tissues; also recorded: significant detachment of nasal polyp cells/pieces | T cell death compared to vehicle (human Jurkat T cell line): significant cell death compared to control | percent of dead cells ([2]; CBD 15 μM, 150 μM, 1.5 mM, 24 h, PI-positive, FIG. 7): significantly increased the percent of dead cells | cell death of incubated nasal polyp cells ([2]; CBD alone 150 μM): substantial cell death | cell death % of dispersed NP cells [3]: significant increase in cell death %; also recorded: significant increase in cell death | NP tissue weight reduction (human NP tissue; 3 h incubation, FIG. 4): significant tissue weight reduction; also recorded: significant nasal polyp weight reduction | NP tissue weight reduction (human NP tissue; CBD 15 μM, 1.5 mM, 24 h incubation, FIG. 5): significant human NP tissue weight reduction; also recorded: significant dose-dependent nasal polyp weight reduction

C=C(C)[C@@H]1CCC(C)=C[C@H]1c1c(O)cc(CCC)cc1O [CBDV, cannabidivarin]
T cell death (human Jurkat T cell line; CBDV 20 μM): induce cell death

CCCCCc1cc(O)c2c(c1)OC(C)(C)[C@@H]1CCC(C)=C[C@@H]21 [THC, tetrahydrocannabinol]
viability of nasal polyp cells (cell death) ([2]; THC 10 μM and 100 μM, 24 h, FIG. 9): comparable effect as CBD at 15 μM and 150 μM, respectively | % cell death ([2]; THC 100 μM, FIG. 9): comparable effect to CBD at a concentration of 150 μM | cell death of incubated nasal polyp cells ([2]; THC alone 10 μM): negligible

CCCCCc1cc(O)c(C/C=C(\C)CCC=C(C)C)c(O)c1 [CBG, cannabigerol]
T cell death compared to vehicle (human Jurkat T cell line): significant cell death compared to control | cell death of NP cells ([2]; CBG 150 μM, FIG. 13C-13D): substantial cell death | cell death % of dispersed NP cells [3]: significant increase in cell death %; also recorded: significant increase in cell death | size of nasal polyps (human NP tissue; CBG 150 μM, 24 h, FIG. 13A): size of nasal polyps is reduced
